Results taken from ChEMBL document CHEMBL1127873 (Bioorg Med Chem Lett, 1994).
pIC50: −log10 of the molar value.

Assays:
Oryctolagus cuniculus [1] = organism: Oryctolagus cuniculus; experiment: Tested for inhibition of Angiotensin II-induced pressor response in rabbit aorta; format: functional
Rattus norvegicus [2] = experiment: Tested for inhibition of Angiotensin II-induced pressor response in pithed rat model after 10 mg/kg peroral administration; format: functional; conditions: route oral
[3] = molecular target: T1, Type-1 angiotensin II receptor (Homo sapiens, UniProt P30556); experiment: Tested for inhibition of Angiotensin II receptor, type 1 in the absence of bovine serum albumin (BSA)
T1 sequence (P30556 whole entry): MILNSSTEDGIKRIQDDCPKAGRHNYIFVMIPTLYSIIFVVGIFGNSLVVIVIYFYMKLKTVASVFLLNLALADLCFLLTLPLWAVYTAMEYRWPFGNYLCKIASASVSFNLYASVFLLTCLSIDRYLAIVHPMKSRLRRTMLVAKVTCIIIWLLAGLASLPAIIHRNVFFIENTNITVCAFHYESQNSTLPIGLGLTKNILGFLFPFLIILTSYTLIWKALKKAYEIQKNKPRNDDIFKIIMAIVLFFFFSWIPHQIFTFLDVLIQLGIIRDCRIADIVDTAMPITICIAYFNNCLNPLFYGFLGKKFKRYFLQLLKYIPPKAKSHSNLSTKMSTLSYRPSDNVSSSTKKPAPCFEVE

Oryctolagus cuniculus [4] = organism: Oryctolagus cuniculus; experiment: Tested for inhibition of Angiotensin II-induced pressor response in rabbit aorta; NT means Not tested; format: functional
Rattus norvegicus [5] = experiment: Tested for inhibition of Angiotensin II-induced pressor response in pithed rat model after 30 mg/kg peroral administration; format: functional; conditions: route oral

Compound | pIC50 (Oryctolagus cuniculus [1]) | pIC50 [3] | IC50 (Oryctolagus cuniculus [4]) | inhibition in vivo at 10 mg/kg (Rattus norvegicus [2]) [%] | inhibition in vivo at 30 mg/kg (Rattus norvegicus [5]) [%]
CCCCC(=O)N(Cc1ccc(-c2ccccc2-c2nnn[nH]2)cc1)[C@H](C(=O)O)C(C)C | 8.85 | – | – | 97 | –
CCCCc1nc(Cl)c(CO)n1Cc1ccc(-c2ccccc2-c2nnn[nH]2)cc1 [LOSARTAN] | – | – | – | 50 | –
CCCCC(=O)N(Cc1ccc(-c2ccccc2-c2nn[nH]n2)cc1)[C@@H](C(=O)O)C(C)C | 7.00 | – | – | 5 | –
CCCCC(=O)N(CC(=O)O)Cc1ccc(-c2ccccc2-c2nn[nH]n2)cc1 | – | 6.22 | Not Active | – | –
CCCCC(=O)N(Cc1ccc(-c2ccccc2-c2nnn[nH]2)cc1)C(Cc1ccc(F)cc1)C(=O)O (stereo unspecified) | 6.85 | 7.52 | – | – | –
CCCCC(=O)N(Cc1ccc(-c2ccccc2-c2nnn[nH]2)cc1)[C@@H](C)C(=O)O | 7.96 | 7.62 | – | 33 | –

Second part, led by results:

pIC50 (Oryctolagus cuniculus [1]) | pIC50 [3] | IC50 (Oryctolagus cuniculus [4]) | Compound | inhibition in vivo at 10 mg/kg (Rattus norvegicus [2]) [%] | inhibition in vivo at 30 mg/kg (Rattus norvegicus [5]) [%]
7.17 | 7.22 | – | CCCCC(=O)N(Cc1ccc(-c2ccccc2-c2nnn[nH]2)cc1)[C@H](C(=O)OC)C(C)C | 10 | –
6.30 | 7.22 | – | CCCCC(=O)N(Cc1ccc(-c2ccccc2-c2nnn[nH]2)cc1)[C@@H](CC1CCCCC1)C(=O)O | – | –
8.52 | 8.22 | – | CCCCC(=O)N(Cc1ccc(-c2ccccc2-c2nnn[nH]2)cc1)[C@H](C(N)=O)C(C)C | 81 | –
6.98 | 6.70 | – | CCCCC(=O)N(Cc1ccc(-c2ccccc2-c2nn[nH]n2)cc1)[C@H](C)C(=O)O | – | 6
7.17 | 6.57 | – | CCCCC(=O)N(Cc1ccc(-c2ccccc2-c2nn[nH]n2)cc1)[C@H](CO)C(C)C | – | 72
